In the test the target is T1, CCR2 (Homo sapiens, UniProt P41597).
T1 construct: host or cells: THP-1 (human monocytic cell line)
Nature of the test: MCP-1 Receptor Binding Assay in THP-1 Cells. The settings on record: read-out: MCP1B_v3 IC50. Summed up:
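Human monocytic THP-1 cells incubated 2 h at 30 °C with 0.5 nM 125I-MCP-1 and varying concentrations of test compound or unlabelled MCP-1. Cells filter-harvested and counted by scintillation; blank subtracted, compared with vehicle; nonspecific binding with 1 μM cold MCP-1.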

By IC50 is commonly meant the midpoint of a concentration-inhibition curve.

T1 sequence (P41597 whole entry): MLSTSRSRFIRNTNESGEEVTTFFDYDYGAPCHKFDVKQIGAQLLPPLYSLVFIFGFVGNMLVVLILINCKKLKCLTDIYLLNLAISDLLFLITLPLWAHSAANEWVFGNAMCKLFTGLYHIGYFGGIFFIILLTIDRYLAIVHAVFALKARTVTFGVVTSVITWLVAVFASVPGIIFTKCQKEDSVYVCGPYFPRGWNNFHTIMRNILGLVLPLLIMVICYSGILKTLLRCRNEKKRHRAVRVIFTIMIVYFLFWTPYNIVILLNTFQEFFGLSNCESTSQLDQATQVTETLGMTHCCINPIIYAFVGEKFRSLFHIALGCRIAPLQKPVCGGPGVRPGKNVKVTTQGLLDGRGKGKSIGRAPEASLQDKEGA

Turning to `CO[C@@H]1COCC[C@@H]1N[C@@H]1C[C@H]2CN(C(=O)/C=C/c3cccc(C(=O)O)c3)C[C@@]2(C(=O)N2CCc3ccc(C(F)(F)F)cc3C2)C1` (relative stereo) [Example 90, 3-((E)-3-((3aR,5R,6aR)-5-(((3S*,4S*)-3-methoxytetrahydro-2H-pyran-4-yl)amino)-3a-(7-(trifluoromethyl)-1,2,3,4-tetrahydroisoquinoline-2-carbonyl)hexahydrocyclopenta-[c]pyrrol-2(1H)-yl)-3-oxoprop-1-en-1-yl)benzoic acid], the IC50 was found to be 10 nM.

As for `COC1COCCC1N[C@@H]1C[C@H]2CN(S(C)(=O)=O)C[C@@]2(C(=O)N2CCc3ncc(C(F)(F)F)cc3C2)C1` (relative stereo) [Example 91, ((3aR,5R,6aR)-5-(((3S*,4S*)-3-Methoxytetrahydro-2H-pyran-4-yl)amino)-2-(methylsulfonyl)octahydrocyclopenta[c]pyrrol-3a-yl)(3-(trifluoromethyl)-7,8-dihydro-1,6-naphthyridin-6(5H)-yl)methanone], the half-inhibitory concentration (IC50) is 610 nM.

Turning to `COC1COCCC1N[C@@H]1C[C@H]2CN(S(=O)(=O)Cc3ccccc3)C[C@@]2(C(=O)N2CCc3ncc(C(F)(F)F)cc3C2)C1` (relative stereo) [Example 92, ((3aR,5R,6aR)-2-(Benzylsulfonyl)-5-(((3S*,4S*)-3-methoxytetrahydro-2H-pyran-4-yl)amino)octahydrocyclopenta[c]pyrrol-3a-yl)(3-(trifluoromethyl)-7,8-dihydro-1,6-naphthyridin-6(5H)-yl)methanone], the IC50 was 1100 nM.

Regarding `COC1COCCC1N[C@@H]1C[C@H]2CN(S(=O)(=O)CCc3ccccc3)C[C@@]2(C(=O)N2CCc3ncc(C(F)(F)F)cc3C2)C1` (relative stereo) [Example 93, ((3aR,5R,6aR)-5-(((3S*,4S*)-3-Methoxytetrahydro-2H-pyran-4-yl)amino)-2-(phenethylsulfonyl)octahydrocyclopenta[c]pyrrol-3a-yl)(3-(trifluoromethyl)-7,8-dihydro-1,6-naphthyridin-6(5H)-yl)methanone], the IC50 stood at 980 nM.

Regarding `COC1COCCC1N[C@@H]1C[C@H]2CN(C3CC3)C[C@@]2(C(=O)N2CCc3ncc(C(F)(F)F)cc3C2)C1` (relative stereo) [Example 94, ((3aR,5R,6aR)-2-Cyclopropyl-5-(((3S*,4S*)-3-methoxytetrahydro-2H-pyran-4-yl)amino)octahydrocyclopenta[c]pyrrol-3a-yl)(3-(trifluoromethyl)-7,8-dihydro-1,6-naphthyridin-6(5H)-yl)methanone], the half-maximal inhibitory concentration (IC50) was 180 nM.

Regarding `COC1COCCC1N[C@@H]1C[C@H]2CN(C3CC3)C[C@@]2(C(=O)N2CCc3ccc(C(F)(F)F)cc3C2)C1` (relative stereo) [Example 95, ((3aR,5R,6aR)-2-Cyclopropyl-5-(((3S*,4S*)-3-methoxytetrahydro-2H-pyran-4-yl)amino)octahydrocyclopenta[c]pyrrol-3a-yl)(7-(trifluoromethyl)-3,4-dihydroisoquinolin-2(1H)-yl)methanone], the IC50 is 30 nM.

As for `COC1COCCC1N[C@@H]1C[C@H]2CN(C(C)C)C[C@@]2(C(=O)N2CCc3ncc(C(F)(F)F)cc3C2)C1` (relative stereo) [Example 96, ((3aR,5R,6aR)-2-Isopropyl-5-(((3S*,4S*)-3-methoxytetrahydro-2H-pyran-4-yl)amino)octahydrocyclopenta[c]pyrrol-3a-yl)(3-(trifluoromethyl)-7,8-dihydro-1,6-naphthyridin-6(5H)-yl)methanone], the IC50 is 1220 nM.

Regarding `CCN1C[C@@H]2C[C@@H](NC3CCOCC3OC)C[C@]2(C(=O)N2CCc3ncc(C(F)(F)F)cc3C2)C1` (relative stereo) [Example 98, ((3aR,5R,6aR)-2-Ethyl-5-(((3S*,4S*)-3-methoxytetrahydro-2H-pyran-4-yl)amino)octahydrocyclopenta[c]pyrrol-3a-yl)(3-(trifluoromethyl)-7,8-dihydro-1,6-naphthyridin-6(5H)-yl)methanone], the IC50 was determined as 630 nM.

`COC1COCCC1N[C@@H]1C[C@H]2CN(C3COC3)C[C@@]2(C(=O)N2CCc3ncc(C(F)(F)F)cc3C2)C1` (relative stereo) [Example 99, ((3aR,5R,6aR)-5-(((3S*,4S*)-3-methoxytetrahydro-2H-pyran-4-yl)amino)-2-(oxetan-3-yl)octahydrocyclopenta[c]pyrrol-3a-yl)(3-(trifluoromethyl)-7,8-dihydro-1,6-naphthyridin-6(5H)-yl)methanone]: the half-maximal inhibitory concentration (IC50) worked out at 130 nM.

As for `COC1COCCC1N[C@@H]1C[C@H]2CN(C3COC3)C[C@@]2(C(=O)N2CCc3ccc(C(F)(F)F)cc3C2)C1` (relative stereo) [Example 100, ((3aR,5R,6aR)-5-(((3S*,4S*)-3-Methoxytetrahydro-2H-pyran-4-yl)amino)-2-(oxetan-3-yl)octahydrocyclopenta[c]pyrrol-3a-yl)(7-(trifluoromethyl)-3,4-dihydroisoquinolin-2(1H)-yl)methanone], the IC50 was 30 nM.

For the molecule `COC1COCCC1N[C@@H]1C[C@H]2CN(Cc3ccccc3)C[C@@]2(C(=O)N2CCc3ncc(C(F)(F)F)cc3C2)C1` (relative stereo) [Example 101, ((3aR,5R,6aR)-2-Benzyl-5-(((3S*,4S*)-3-methoxytetrahydro-2H-pyran-4-yl)amino)octahydrocyclopenta[c]pyrrol-3a-yl)(3-(trifluoromethyl)-7,8-dihydro-1,6-naphthyridin-6(5H)-yl)methanone], the IC50 was 370 nM.

As to `COC1COCCC1N[C@@H]1C[C@H]2CN(CCc3ccccc3)C[C@@]2(C(=O)N2CCc3ncc(C(F)(F)F)cc3C2)C1` (relative stereo) [Example 102, ((3aR,5R,6aR)-5-(((3S*,4S*)-3-Methoxytetrahydro-2H-pyran-4-yl)amino)-2-phenethyloctahydrocyclopenta[c]pyrrol-3a-yl)(3-(trifluoromethyl)-7,8-dihydro-1,6-naphthyridin-6(5H)-yl)methanone], the IC50 came to 1000 nM.

`COC1COCCC1N[C@@H]1C[C@H]2CN(CCCc3ccccc3)C[C@@]2(C(=O)N2CCc3ncc(C(F)(F)F)cc3C2)C1` (relative stereo) [Example 103, ((3aR,5R,6aR)-5-(((3S*,4S*)-3-Methoxytetrahydro-2H-pyran-4-yl)amino)-2-(3-phenylpropyl)octahydrocyclopenta[c]pyrrol-3a-yl)(3-(trifluoromethyl)-7,8-dihydro-1,6-naphthyridin-6(5H)-yl)methanone]: the concentration for half-maximal inhibition (IC50) was determined as 1000 nM.

Regarding `COC1COCCC1N[C@@H]1C[C@H]2CN(C3CCOCC3OC)C[C@@]2(C(=O)N2CCc3ncc(C(F)(F)F)cc3C2)C1` (relative stereo) [Example 104, ((3aR,5R,6aR)-2-((3S*,4S*)-3-Methoxytetrahydro-2H-pyran-4-yl)-5-(((3S*,4S*)-3-methoxytetrahydro-2H-pyran-4-yl)amino)octahydrocyclopenta[c]pyrrol-3a-yl)(3-(trifluoromethyl)-7,8-dihydro-1,6-naphthyridin-6(5H)-yl)methanone], the IC50 was 1980 nM.

Turning to `COC1COCCC1N[C@@H]1C[C@H]2CN(C3CCOCC3OC)C[C@@]2(C(=O)N2CCc3ccc(C(F)(F)F)cc3C2)C1` (relative stereo) [Example 105, ((3aR,5R,6aR)-2-((3S*,4S*)-3-Methoxytetrahydro-2H-pyran-4-yl)-5-(((3S*,4S*)-3-methoxytetrahydro-2H-pyran-4-yl)amino)octahydrocyclopenta[c]pyrrol-3a-yl)(7-(trifluoromethyl)-3,4-dihydroisoquinolin-2(1H)-yl)methanone], the IC50 was 120 nM.

On to `COC1COCCC1N[C@@H]1C[C@H]2CN(CC(=O)N(C)C)C[C@@]2(C(=O)N2CCc3ncc(C(F)(F)F)cc3C2)C1` (relative stereo) [Example 106, 2-((3aR,5R,6aR)-5-(((3S*,4S*)-3-Methoxytetrahydro-2H-pyran-4-yl)amino)-3a-(3-(trifluoromethyl)-5,6,7,8-tetrahydro-1,6-naphthyridine-6-carbonyl)hexahydrocyclopenta[c]pyrrol-2(1H)-yl)-N,N-dimethylacetamide], for which the IC50 was found to be 2800 nM.

Take `COC(=O)CN1C[C@@H]2C[C@@H](NC3CCOCC3OC)C[C@]2(C(=O)N2CCc3ncc(C(F)(F)F)cc3C2)C1` (relative stereo) [Example 107, Methyl 2-((3aR,5R,6aR)-5-(((3S*,4S*)-3-methoxytetrahydro-2H-pyran-4-yl)amino)-3a-(3-(trifluoromethyl)-5,6,7,8-tetrahydro-1,6-naphthyridine-6-carbonyl)hexahydrocyclopenta[c]pyrrol-2(1H)-yl)acetate]: the concentration for half-maximal inhibition (IC50) came out at 1100 nM.

Consider `COC1COCCC1N[C@@H]1C[C@H]2CN(c3ccccc3)C[C@@]2(C(=O)N2CCc3ncc(C(F)(F)F)cc3C2)C1` (relative stereo) [Example 108, ((3aR,5R,6aR)-5-(((3S*,4S*)-3-Methoxytetrahydro-2H-pyran-4-yl)amino)-2-phenyloctahydrocyclopenta[c]pyrrol-3a-yl)(3-(trifluoromethyl)-7,8-dihydro-1,6-naphthyridin-6(5H)-yl)methanone], for which the concentration for half-maximal inhibition (IC50) came to 120 nM.

Consider `COC1COCCC1N[C@@H]1C[C@H]2CN(c3nccs3)C[C@@]2(C(=O)N2CCc3ncc(C(F)(F)F)cc3C2)C1` (relative stereo) [Example 110, ((3aR,5R,6aR)-5-(((3S*,4S*)-3-Methoxytetrahydro-2H-pyran-4-yl)amino)-2-(thiazol-2-yl)octahydrocyclopenta[c]pyrrol-3a-yl)(3-(trifluoromethyl)-7,8-dihydro-1,6-naphthyridin-6(5H)-yl)methanone], for which the 50% inhibitory concentration (IC50) amounted to 150 nM.

Regarding `COC1COCCC1N[C@@H]1C[C@H]2CN(c3nc(C)no3)C[C@@]2(C(=O)N2CCc3ncc(C(F)(F)F)cc3C2)C1` (relative stereo) [Example 111, ((3aR,5R,6aR)-5-(((3S*,4S*)-3-Methoxytetrahydro-2H-pyran-4-yl)amino)-2-(3-methyl-1,2,4-oxadiazol-5-yl)octahydrocyclopenta[c]pyrrol-3a-yl)(3-(trifluoromethyl)-7,8-dihydro-1,6-naphthyridin-6(5H)-yl)methanone], the IC50 was found to be 270 nM.

The values above are taken from patent publication US9024017B2, “Octahydro-cyclopentapyrrolyl antagonists of CCR2” (Janssen Pharmaceutica NV, priority 2012, dated 2015).
